According to ChEMBL document CHEMBL1138720, “Synthesis, (1-->3)-beta-D-glucanase-binding ability and phytoalexin-elicitor activity of (R)-2,3-epoxypropyl (1-->3)-beta-D-pentaglucoside” (Bioorg Med Chem Lett, 2004):

Key:
[1] = Inactivation of (1-3)-beta-D-glucanase by the compound was determined
[2] = Phytoalexin-elicitor activity in tobacco cotyledon tissue was determined after 44 hrs; type: functional, Nicotiana tabacum
[3] = Phytoalexin-elicitor activity in tobacco cotyledon tissue was determined after 66 hrs; type: functional, Nicotiana tabacum
[4] = Phytoalexin-elicitor activity in tobacco cotyledon tissue was determined after 22 hrs; type: functional, Nicotiana tabacum

OC[C@H]1O[C@@H](O[C@@H]2[C@@H](O)[C@H](O[C@@H]3[C@@H](O)[C@H](O[C@@H]4[C@@H](O)[C@H](O[C@@H]5[C@@H](O)[C@H](OC[C@H]6CO6)O[C@H](CO)[C@H]5O)O[C@H](CO)[C@H]4O)O[C@H](CO)[C@H]3O)O[C@H](CO)[C@H]2O)[C@H](O)[C@@H](O)[C@@H]1O
K app [1]: 0.000379 min⁻¹
EC50 [2]: 80 uM l-1
EC50 [3]: 160 uM l-1
EC50 [4]: 90 uM l-1
